From patent publication US12102089B2, “Method for inactivating mold spores” (DSM IP ASSETS B.V., priority 2017, dated 2024)

Test: LC-MS/MS analysis of natamycin and mycosamine in heated ice tea sample
Assay type: physicochemical
Settings: 10 ppm natamycin at t=0, heated at 70° C.
Description: For the analysis of mycosamine at low concentrations (ppb level) a sample preparation is used with a cation exchange SPE material to isolate mycosamine from the sample matrix and/or remove possible interfering impurities therefrom. The analysis was performed on LC-MS/MS on a ZIC-HILIC column. For the identification and (semi) quantification a reference of mycosamine was prepared. The concentration of mycosamine in this reference was determined with ^1H-NMR.

- mycosamine found in sample (Example 1 ice tea sample (pH 3.15)): 2 mg/L
- mycosamine found in sample (Example 2 ice tea sample): 2 mg/L
- mycosamine found in sample (Example 3 ice tea sample): 2 mg/L
Compound: C[C@@H](O)[C@@H](O)[C@H](N)[C@H](O)C=O [mycosamine]
